We go through one compound from the NIST ThermoML archive (doi:10.1016/j.jct.2016.04.002).

The conditions of data set [1]: Crystal; DTA.
Data set [2] is described as follows: Molar enthalpy of transition or fusion. The settings on record: Crystal; DSC.

Numbers after ± are expanded uncertainties.

For `O=C(O)[C@]1(O)C[C@@H](O)[C@@H](O)[C@H](O)C1`, the Normal melting temperature in data set [1] is 167.01 ± 1.1 °C. Moreover, in data set [2], the “Molar enthalpy of transition or fusion” value amounted to 50.5 ± 2.2 kJ/mol.
